Where two headings read alike, the source gives them in different places.
Columns and labels:
[1] = target: T1, Human osteoclastic acid phosphatase (OAP) (Homo sapiens, UniProt P13686); experiment: Osteoclastic Acid Phosphatase (OAP) inhibition; type: biochemical; conditions: for inhibition at 100 µM: read-out: OAPase % Inh@100 uM
T1 construct: purified from hairy cell leukemia spleen; from tissue; host or cells: human hairy cell leukemia spleen
T1 sequence (P13686 22-325): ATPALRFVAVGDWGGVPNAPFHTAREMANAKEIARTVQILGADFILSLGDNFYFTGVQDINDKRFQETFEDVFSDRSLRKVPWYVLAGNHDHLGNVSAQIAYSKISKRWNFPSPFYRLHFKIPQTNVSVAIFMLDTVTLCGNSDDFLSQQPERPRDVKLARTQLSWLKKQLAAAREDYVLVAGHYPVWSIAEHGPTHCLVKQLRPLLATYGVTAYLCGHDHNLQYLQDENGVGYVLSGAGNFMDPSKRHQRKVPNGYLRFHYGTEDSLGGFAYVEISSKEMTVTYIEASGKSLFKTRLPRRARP
Method: Inhibitors of the enzyme are involved with the stimulation of osteoblast cell proliferation in cell culture which is predictive of enhancement of bone mass and bone formation in vivo. Inhibitors of osteoclastic acid phosphatase prevent the resorptive action of osteoclasts and thereby prevent the degradation of bone mass associated with osteoporosis.
The enzyme was stored at -80° C. and was diluted in 50 mM, pH 5.0, sodium acetate buffer prior to use. Test compounds were dissolved in ethanol, DMSO, or water and tested at 100 μM. The assay measures the ability of the enzyme to dephosphorylate methylumbelliferone phosphate to the product, methylumbelliferone, which is fluorescent. The enzyme assay is performed in 50 mM, pH 5.0, sodium acetate buffer as follows: 5 μL of compound was added to 150 μL Of buffered enzyme solution. […] The reaction was performed at room temperature at pH=5.0 and terminated after 20 minutes by the addition of 50 μL of 4N NaOH. The reaction product, methylumbelliferone, was measured by fluorescence determination using a Dynatech Microfluor Fluorescence detector.

[2] = target: T2, human prostatic tyrosyl phosphatase (Homo sapiens, UniProt P15309); experiment: biochemical; conditions: 30 minutes at 37° C., pH 5.5, (14C)-phosphotyrosine substrate; read-out: Tyr-Pase IC50
T2 construct: purchased Sigma Chemical Co
T2 sequence (P15309 33-386): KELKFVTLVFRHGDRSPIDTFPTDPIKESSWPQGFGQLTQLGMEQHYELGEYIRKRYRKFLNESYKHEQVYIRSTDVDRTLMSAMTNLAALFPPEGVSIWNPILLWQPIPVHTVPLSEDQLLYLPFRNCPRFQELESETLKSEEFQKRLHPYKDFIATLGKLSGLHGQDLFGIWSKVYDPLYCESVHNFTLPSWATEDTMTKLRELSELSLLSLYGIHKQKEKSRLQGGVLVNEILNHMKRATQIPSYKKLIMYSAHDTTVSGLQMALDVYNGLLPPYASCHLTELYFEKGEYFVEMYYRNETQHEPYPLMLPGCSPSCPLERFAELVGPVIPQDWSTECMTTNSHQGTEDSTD
Method: Inhibition of the activity of tyrosyl protein phosphatase was evaluated by incubating an aliquot of purified human prostatic tyrosyl protein acid phosphatase (Sigma Chemical Co.) with radiolabeled phosphotyrosine. The radiolabeled substrate, (^14 C)-phosphotyrosine, is separated from the product, (^14 C)-tyrosine by ion exchange chromatography and the production of radiolabeled tyrosine is quantified. Test compounds are screened at a concentration of one micromolar to 1 nM. The ability of test compounds to inhibit tyrosyl phosphatase was expressed as the % inhibition at the highest concentration of test compound tested and/or as the IC50 in Table 1.
The test compounds were incubated in the presence of tyrosyl acid phosphatase and radiolabeled substrate {(^14 C)-phosphotyrosine, (NEN Dupont Custom Synthesis)} plus cold O-phospho-L-tyrosine{(10 uM) (Sigma Chemical Co.)} in a 0.05 mM sodium acetate buffer (pH 5.5) for 30 minutes at 37° C. […] The incubation mixture was passed over an ion-exchange column {(Ag 1-X8) (Bio-Rad Laboratories)} and washed with 2.5 ml of distilled, deionized water. The total column effluent containing the radiolabeled product (^14 C-tyrosine) was collected and quantified by liquid scintillation spectroscopy. The test compounds IC50 was calculated using a quantal (all-or-none) dose-response calculation.

[3] = pH 5.0, room temperature, 20 minutes
[4] = pH 5.0, room temperature, 20 minutes, read-out: OAPase IC50

inhibition at 100 µM [1, 3] [%]	IC50 [2] [µM]	IC50 [1, 4] [µM]	Structure (SMILES)	IC50 [1] [µM]
6	23.5		O=P(O)(O)C(c1ccccc1)C1CCCCCC1 (centres unmarked) [Cmpd 5]	
94	15.7	29	O=P(O)(O)C(Cc1ccc(-c2ccccc2)cc1)c1ccccc1 (centres unmarked) [Cmpd 25]	
25	36		Cc1cccc(CC(c2cccc(C(F)(F)F)c2)P(=O)(O)O)c1 (centres unmarked) [Cmpd 31]	
16			Cc1cccc(C(C2CCCCC2)P(=O)(O)O)c1 (centres unmarked) [Cmpd 7]	
100	50 to 100	17	O=P(O)(O)C(c1ccc(-c2ccccc2)cc1)c1ccc(-c2ccccc2)cc1 [Cmpd 28]	
20	102		O=P(O)(O)C(c1ccccc1)c1ccc(Br)cc1 (centres unmarked) [Cmpd 26]	
26	67.1		O=P(O)(O)C(c1ccccc1)c1cccc(C(F)(F)F)c1 (centres unmarked) [Cmpd 16]	
9	8.9		O=P(O)(O)C(c1ccccc1)c1ccccc1C(F)(F)F (centres unmarked) [Cmpd 14, 2-Trifluoromethylphenyl(phenyl)methylphosphonic Acid]	
16			Cc1ccccc1C(C1CCCCC1)P(=O)(O)O (centres unmarked) [Cmpd 8]	
31	15		O=P(O)(O)C(c1ccccc1)c1cccc(Cl)c1 (centres unmarked) [Cmpd 15]	
40	37		O=P(O)(O)C(c1ccc(-c2ccccc2)cc1)C1CCCCC1 (centres unmarked) [Cmpd 6]	
10	66.2		O=P(O)(O)C(Cc1ccc(C(F)(F)F)cc1)c1cccc(C(F)(F)F)c1 (centres unmarked) [Cmpd 32]	
75			Cc1ccc(CC(c2cccc3ccccc23)P(=O)(O)O)cc1 (centres unmarked) [Cmpd 46]	
12	100		O=P(O)(O)C(Cc1ccccc1)c1cccc(C(F)(F)F)c1 (centres unmarked) [Cmpd 36]	
	6.9	1.4	O=P(O)(O)C(c1ccccc1)C1CCCCC1 (centres unmarked) [Cmpd 4]	
12	30.7		O=P(O)(O)C(c1ccccc1)c1ccccc1Cl (centres unmarked) [Cmpd 13]	
73	> 10	11.4	Cc1ccc2c(C(CC3CCCCC3)P(=O)(O)O)cccc2c1 (centres unmarked) [Cmpd 43]	

inhibition at 100 µM [1, 3] [%]	IC50 [2] [µM]	IC50 [1, 4] [µM]	Structure (SMILES)	IC50 [1] [µM]
92	67.2	21	O=P(O)(O)C(Cc1ccccc1)c1cccc2ccccc12 (centres unmarked) [Cmpd 45]	
28	29.3		O=P(O)(O)C(c1cccc(C(F)(F)F)c1)c1cccc(C(F)(F)F)c1 [Cmpd 20, bis(3-Trifluoromethylphenyl)methylphosphonic Acid]	
10	44.2		O=P(O)(O)C(c1ccccc1)c1ccc(F)cc1 (centres unmarked) [Cmpd 21]	
25	30.6		O=P(O)(O)C(Cc1ccc(F)cc1)c1cccc(C(F)(F)F)c1 (centres unmarked) [Cmpd 37]	
17	142		O=P(O)(O)C(c1ccccc1)c1ccc(Cl)cc1 (centres unmarked) [Cmpd 27]	
100	35.7	22	O=P(O)(O)C(Cc1ccc(-c2ccccc2)cc1)c1cccc(C(F)(F)F)c1 (centres unmarked) [Cmpd 38]	
28	36.6		COc1ccc(C(c2ccccc2)P(=O)(O)O)cc1 (centres unmarked) [Cmpd 24]	
	9	100	O=P(O)(O)C(Cc1cccc(C(F)(F)F)c1)c1cccc(C(F)(F)F)c1 (centres unmarked) [Cmpd 35, 3-Trifluoromethylphenyl(3-trifluoromethylbenzyl)methylphosphonic Acid]	
73			COc1ccc(CC(c2cccc3ccccc23)P(=O)(O)O)cc1 (centres unmarked) [Cmpd 44]	
89	17		O=[N+]([O-])c1cccc(C(c2ccccc2)P(=O)(O)O)c1 (centres unmarked) [Cmpd 17]	
13	37.8		Cc1ccccc1C(c1ccccc1)P(=O)(O)O (centres unmarked) [Cmpd 11]	
	40.8	100	O=P(O)(O)C(c1ccccc1)c1ccc(C(F)(F)F)cc1 (centres unmarked) [Cmpd 23]	
13	36.5		Cc1ccc(C)c(C(c2ccccc2)P(=O)(O)O)c1 (centres unmarked) [Cmpd 19, 2,5-Dimethylphenyl(phenyl)methylphosphonic Acid]	
19	> 1		O=P(O)(O)C(Cc1ccccc1)c1ccc2ccccc2c1 (centres unmarked) [Cmpd 40]	
100	> 1	6.3	O=P(O)(O)C(Cc1ccc(-c2ccccc2)cc1)c1cccc2ccccc12 (centres unmarked) [Cmpd 42]	
30	13.8		O=P(O)(O)C(CCc1ccccc1)c1ccccc1 (centres unmarked) [Cmpd 9]	
80			O=[N+]([O-])c1ccc(CC(c2cccc3ccccc23)P(=O)(O)O)cc1 (centres unmarked) [Cmpd 47]	

Structure (SMILES)	inhibition at 100 µM [1, 3] [%]	IC50 [2] [µM]	IC50 [1, 4] [µM]	IC50 [1] [µM]
O=P(O)(O)C(Cc1ccc(Cl)cc1)c1cccc2ccccc12 (centres unmarked) [Cmpd 48, 4-Chlorobenzyl(1-naphthyl)methylphosphonic acid]	94	56.9		21
Cc1cccc(C(c2ccccc2)P(=O)(O)O)c1 (centres unmarked) [Cmpd 18]	4	14		
O=C(c1ccccc1)C(C(=O)c1ccccc1)(c1cccc2ccccc12)P(=O)(O)O [Cmpd 55, bis(Benzoyl)(1-naphthyl)methylphosphonic Acid]	96	> 1		1.4
